Measurements: patent US7196077B2, “Tachykinin antagonists” (Glaxo Group Limited, priority 2001, dated 2007)
Structures can show the parent of a compound that is named as a salt.

Biological target: T1, recombinant human NK1 receptors (Homo sapiens, UniProt P25103)
T1 construct: expressed in transfected cells; host or cells: Chinese Hamster Ovary (CHO) cells, membrane preparation
Assay: NK1-receptor binding affinity, displacement of [3H]-substance P
Details: negative logarithm of Ki; displacement of [3H]-substance P from recombinant human NK1 receptors in CHO cell membranes; average of at least two determinations
Protocol: NK1-receptor binding affinity has been determined in vitro by the compounds' ability to displace [3H]-substance P (SP) from recombinant human NK1 receptors expressed in Chinese Hamster Ovary (CHO) cell membranes.
CHO cell membranes were prepared by using a modification of the method described by Dam T and Quirion R (Peptides, 7: 855–864, 1986). Thus ligand binding was performed in 0.4 mL of 50 mM HEPES, pH 7.4, containing 3 mM MnCl2, 0.02% BSA, 0.5 nM [^3H]-Substance P (30÷56 Ci/mmol, Amersham), a final membrane concentration of 25 μg of protein/ml, and the test compounds. The incubation proceeded at room temperature for 40 min. Non-specific binding was determined using excess of Substance P (1 μM) and represents about 6% of the total binding.
The affinity of the compound of the invention for NK1 receptor was determined using the NK1-receptor binding affinity method measuring in vitro by the compounds' ability to displace [3H]-substance P (SP) from recombinant human NK1 receptors expressed in Chinese Hamster Ovary (CHO) cell membranes. The affinity values are expressed as negative logarithm of the inhibition constant (Ki) of displacer ligands (pKi).

T1 sequence (P25103 whole entry): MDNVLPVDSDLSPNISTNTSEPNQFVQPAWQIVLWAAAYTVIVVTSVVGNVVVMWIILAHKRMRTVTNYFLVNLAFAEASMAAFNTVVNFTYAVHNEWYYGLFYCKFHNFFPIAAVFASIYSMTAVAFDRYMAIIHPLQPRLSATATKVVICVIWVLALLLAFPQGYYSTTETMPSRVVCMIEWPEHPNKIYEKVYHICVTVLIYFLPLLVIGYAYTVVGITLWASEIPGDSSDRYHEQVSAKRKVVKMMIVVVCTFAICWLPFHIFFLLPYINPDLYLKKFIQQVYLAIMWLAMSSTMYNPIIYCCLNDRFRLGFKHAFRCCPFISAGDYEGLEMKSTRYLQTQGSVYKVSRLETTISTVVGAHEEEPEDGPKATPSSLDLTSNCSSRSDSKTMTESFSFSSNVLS

Compound | Ki [nM]
Cc1cc(F)ccc1[C@H]1CNCCCN1C(=O)N(C)[C@H](C)c1cc(C(F)(F)F)cc(C(F)(F)F)c1 [Example 3, 2-(S)-(4-Fluoro-2-methyl-phenyl)-[1,4]-diazepane-1-carboxylic acid, [1-(R)-(3,5-bis-trifluoromethyl-phenyl)-ethyl]-methylamide hydrochloride] | 0.0245
Cc1cc(F)ccc1[C@H]1CCNCCN1C(=O)N(C)Cc1cc(Cl)cc(Cl)c1 [Example 6, 7-(R)-(4-Fluoro-2-methyl-phenyl)-[1,4]-diazepane-1-carboxylic acid, (3,5-dichloro-benzyl)-methylamide hydrochloride] | 0.0977
Cc1cc(F)ccc1[C@H]1CCN(C)CCN1C(=O)N(C)[C@H](C)c1cc(C(F)(F)F)cc(C(F)(F)F)c1 [Example 15, 7-(R)-(4-Fluoro-2-methyl-phenyl)-4-methyl-[1,4]-diazepane-1-carboxylic acid, [1-(R)-(3,5-bis-trifluoromethyl-phenyl)-ethyl]-methylamide hydrochloride.] | 0.0309
Cc1cc(F)ccc1[C@H]1CNCCCN1C(=O)N(C)Cc1cc(Cl)cc(Cl)c1 [Example 5, 2-(S)-(4-Fluoro-2-methyl-phenyl)-[1,4]-diazepane-1-carboxylic acid, (3,5-dichloro-benzyl)-methylamide hydrochloride] | 0.0661
Cc1cc(F)ccc1[C@H]1CCN(C)CCN1C(=O)N(C)Cc1cc(Cl)cc(Cl)c1 [Example 13, 7-(R)-(4-Fluoro-2-methyl-phenyl)-4-methyl-[1,4]-diazepane-1-carboxylic acid, (3,5-dichloro-benzyl)-methylamide hydrochloride] | 0.295
Cc1cc(F)ccc1[C@H]1CCNCCN1C(=O)N(C)[C@H](C)c1cc(C(F)(F)F)cc(C(F)(F)F)c1 [Example 4, 7-(R)-(4-Fluoro-2-methyl-phenyl)-[1,4]-diazepane-1-carboxylic acid, [1-(R)-(3,5-bis-trifluoromethyl-phenyl)-ethyl]-methylamide hydrochloride] | 0.0195
Cc1cc(F)ccc1[C@H]1CNCCCN1C(=O)N(C)[C@@H](C)c1cc(C(F)(F)F)cc(C(F)(F)F)c1 [Example 7, 2-(S)-(4-Fluoro-2-methyl-phenyl)-[1,4]-diazepane-1-carboxylic acid, [1-(S)-(3,5-bis-trifluoromethyl-phenyl)-ethyl]-methylamide hydrochloride] | 0.0479
Cc1cc(F)ccc1[C@H]1CCNCCN1C(=O)N(C)[C@@H](C)c1cc(C(F)(F)F)cc(C(F)(F)F)c1 [Example 8, 7-(R)-(4-Fluoro-2-methyl-phenyl)-[1,4]-diazepane-1-carboxylic acid, [1-(S)-(3,5-bis-trifluoromethyl-phenyl)-ethyl]-methylamide hydrochloride] | 0.0457
Cc1cc(F)ccc1[C@H]1CCN(C)CCN1C(=O)N(C)Cc1cc(C(F)(F)F)cc(C(F)(F)F)c1 [Example 14, 7-(R)-(4-Fluoro-2-methyl-phenyl)-4-methyl-[1,4]-diazepane-1-carboxylic acid, (3,5-bis-trifluoromethyl-benzyl)-methylamide hydrochloride] | 0.0562
Cc1cc(F)ccc1[C@H]1CCNCCN1C(=O)N(C)Cc1cc(C(F)(F)F)cc(C(F)(F)F)c1 [Example 2, 7-(R)-(4-Fluoro-2-methyl-phenyl)-[1,4]-diazepane-1-carboxylic acid, (3,5-bis-trifluoromethyl-benzyl)-methylamide hydrochloride] | 0.0724
CN(Cc1cc(C(F)(F)F)cc(C(F)(F)F)c1)C(=O)N1CCCNC[C@@H]1c1ccc(F)cc1 [Example 12a, 2-(S)-(4-Fluoro-phenyl)-[1,4]-diazepane-1-carboxylic acid, (3,5bis-trifluoromethyl-benzyl)-methylamide hydrochloride] | 0.501
Cc1cc(F)ccc1[C@H]1CNCCCN1C(=O)N(C)Cc1cc(C(F)(F)F)cc(C(F)(F)F)c1 [Example 1, 2-(S)-(4-Fluoro-2-methyl-phenyl)-[1,4]-diazepane-1-carboxylic acid, (3,5-bis-trifluoromethyl-benzyl)-methylamide hydrochloride] | 0.0347
